In US9120749B2, “Quinoline derivatives and MELK inhibitors containing the same” (ONCOTHERAPY SCIENCE, INC., priority 2010, dated 2015):
Counter-ions that a name gives are not always drawn.

How the values were obtained:
MELK = MELK (Homo sapiens, UniProt Q14680); test: Kinase assay: MELK activity, phosphorylation of FITC-labeled histone H3 peptide measured by IMAP fluorescence polarization; type: biochemical; details: 50 micro-M ATP, FITC-labeled histone H3 peptide substrate, IMAP fluorescence polarization; read-out: IC50 (μM) (kinase assay)
Summary of the method: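 Substrate is FITC-labeled histone H3 peptide. Compounds come from a 12.5 mM DMSO stock, diluted so assay DMSO is 1%. The stop step adds threefold-volume progressive binding solution, followed by 0.5 h at room temperature and an FP read.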

BT-549 cells = test: Cell-based assay: anti-proliferative activity, Cell Counting Kit-8, 72 hours (BT-549); details: BT549 cells, MELK-expressing, Cell Counting Kit-8 at 72 hours
Experimental: To evaluate the expression status of MELK in several cell lines, western blot analysis was performed using crude cell lysate collected from those cells. Anti-MELK antibody (clone 31, BD Biosciences) was used to visualize the expression.
Active candidate inhibitors against MELK were evaluated for their target-specific cytotoxicity using T47D, A549, BT-549, and HT-1197 cells was used for negative control. 100 micro-L of cell suspension was seeded onto 96-well microtiter plate (ViewPlate-96FTC, PerkinElmer). The initial cell concentration of T47D, A549, BT-549, and HT-1197 were 3,000 cells/well, 2,000 cells/well and 2,500 cells/well, respectively. Cellular growth was determined using Cell Counting Kit-8 (DOJINDO) at 72 hours after the exposure of the candidate inhibitors. […] Accurate IC50 values were calculated as described previously.

T47D cells = test: Cell-based assay: anti-proliferative activity, Cell Counting Kit-8, 72 hours (T47D); details: MELK-expressing, Cell Counting Kit-8 at 72 hours
Summary of the method: (§1)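 IC50 values come from CCK-8 growth measurements taken 72 hours post-treatment of plated cells with test compounds. Expression of MELK across the panel was assessed through immunoblot of unfractionated lysates.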

A549 cells = test: Cell-based assay: anti-proliferative activity, Cell Counting Kit-8, 72 hours (A549); details: MELK-expressing, Cell Counting Kit-8 at 72 hours
Summary of the method: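 A549 cells seeded in 96-well plates and exposed to candidate inhibitors for 72 hours. Growth measured with Cell Counting Kit-8; IC50 values calculated from the dose response.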

HT-1197 cells = test: Cell-based assay: anti-proliferative activity, Cell Counting Kit-8, 72 hours (HT-1197, negative control without MELK expression); details: HT1197 cells, no MELK expression (negative control), Cell Counting Kit-8 at 72 hours
Summary of the method: as §1

Sequence of MELK (Q14680 whole entry, looked up): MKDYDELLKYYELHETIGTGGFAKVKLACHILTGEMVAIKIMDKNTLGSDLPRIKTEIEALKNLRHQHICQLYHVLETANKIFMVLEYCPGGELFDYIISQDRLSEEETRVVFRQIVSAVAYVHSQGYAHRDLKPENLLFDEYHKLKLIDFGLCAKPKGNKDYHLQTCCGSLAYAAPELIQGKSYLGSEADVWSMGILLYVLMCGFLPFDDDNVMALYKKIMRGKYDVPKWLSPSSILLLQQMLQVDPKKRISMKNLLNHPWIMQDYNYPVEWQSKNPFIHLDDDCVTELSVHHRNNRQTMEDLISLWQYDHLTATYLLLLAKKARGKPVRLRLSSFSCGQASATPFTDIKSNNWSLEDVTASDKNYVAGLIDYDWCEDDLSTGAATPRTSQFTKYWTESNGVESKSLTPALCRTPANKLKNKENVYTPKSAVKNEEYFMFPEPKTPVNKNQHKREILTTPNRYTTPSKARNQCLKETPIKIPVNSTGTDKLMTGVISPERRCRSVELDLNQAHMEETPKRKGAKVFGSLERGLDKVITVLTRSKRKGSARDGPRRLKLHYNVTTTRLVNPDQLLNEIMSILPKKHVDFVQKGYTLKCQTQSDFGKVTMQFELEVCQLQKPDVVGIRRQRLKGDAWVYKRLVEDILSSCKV

Structure (SMILES)	IC50 (MELK) [µM]	IC50 (BT-549 cells; Homo sapiens, BT-549, 72 h) [µM]	IC50 (T47D cells; Homo sapiens, T47D, 72 h) [µM]	IC50 (A549 cells; Homo sapiens, A549, 72 h) [µM]	IC50 (HT-1197 cells; Homo sapiens, HT1197, 72 h) [µM]	IC50 (BT-549 cells; dihydrochloride) [µM]	IC50 (T47D cells; dihydrochloride) [µM]	IC50 (A549 cells; dihydrochloride) [µM]	IC50 (HT-1197 cells; dihydrochloride) [µM]
N[C@H]1CC[C@H](Nc2c(C(=O)C3CC3)cnc3ccc(-c4cc(F)c(O)c(F)c4)cc23)CC1 [Example 156, {4-[trans-4-Aminocyclohexylamino]-6-(3,5-difluoro-4-hydroxyphenyl)quinolin-3-yl}(cyclopropyl)methanone]	0.023	0.16	0.095	0.88	3.1	–	–	–	–
CC(C1CCN(c2c(S(C)(=O)=O)cnc3ccc(-c4ccc(O)c(Cl)c4)cc23)CC1)N(C)C (stereo not drawn) [Example 246, 2-Chloro-4-[4-{4-[1-(dimethylamino)ethyl]piperidin-1-yl}-3-(methylsulfonyl)quinolin-6-yl]phenol]	0.01	0.72	0.18	0.35	1.2	–	–	–	–
O=C(c1cnc2ccc(-c3ccc(O)c(Cl)c3)cc2c1NCCN1CCNCC1)C1CC1 [Example 215, {6-(3-Chloro-4-hydroxyphenyl)-4-[2-(piperazin-1-yl)ethylamino]quinolin-3-yl}(cyclopropyl)methanone]	0.017	1.5	0.92	1.2	3.9	–	–	–	–
O=C(c1cnc2ccc(-c3ccc(O)c(Cl)c3)cc2c1N1CCC(CN2CCOCC2)CC1)C1CC1 [Example 332, {6-(3-Chloro-4-hydroxyphenyl)-4-[4-(morpholinomethyl)piperidin-1-yl]quinolin-3-yl}(cyclopropyl)methanone]	0.035	1.5	0.67	0.55	10	–	–	–	–
CC(C)C(=O)c1cnc2ccc(-c3ccc(C#N)nc3)cc2c1N[C@H]1CC[C@H](N)CC1 [Example 108, 5-{4-[trans-4-Aminocyclohexylamino]-3-isobutyrylquinolin-6-yl}picolinonitrile]	0.03	14	6.1	13	15	–	–	–	–
CN1CCN(C2CCN(c3c(C(=O)C4CC4)cnc4ccc(-c5cc(F)c(O)c(Cl)c5)cc34)CC2)CC1 [Example 349, {6-(3-Chloro-5-fluoro-4-hydroxyphenyl)-4-[4-(4-methylpiperazin-1-yl)piperidin-1-yl]quinolin-3-yl}(cyclopropyl)methanone]	0.0046	0.91	0.49	0.98	5.8	–	–	–	–
CCN(CC)C1CCC(Nc2c(C(C)=O)cnc3ccc(-c4ccc(O)c(Cl)c4)cc23)CC1 (stereo not drawn) [Example 335, 1-{6-(3-Chloro-4-hydroxyphenyl)-4-[4-(diethylamino)cyclohexylamino]quinolin-3-yl}ethanone]	0.021	0.65	0.1	0.29	1.2	–	–	–	–
COc1cc(-c2ccc3ncc(C(=O)C4CC4)c(-c4ccc(CN(C)C)cc4)c3c2)cc(Cl)c1O [Example 356]	0.0042	0.87	0.46	0.45	3.5	–	–	–	–
CN(C)[C@H]1CC[C@H](Nc2c(C(=O)C3CC3)cnc3cc(F)c(-c4cc(F)c(O)c(Cl)c4)cc23)CC1 [Example 295, {6-(3-Chloro-5-fluoro-4-hydroxyphenyl)-4-[trans-4-(dimethylamino)cyclohexylamino]-7-fluoroquinolin-3-yl}(cyclopropyl)methanone]	0.027	0.39	0.42	0.31	1.2	–	–	–	–
COc1cc(-c2ccc3ncc(C(C)=O)c(N4CCC(CN5CCCC5)CC4)c3c2)cc(Cl)c1O [Example 321, 1-{6-(3-Chloro-4-hydroxy-5-methoxyphenyl)-4-[4-(pyrrolidin-1-ylmethyl)piperidin-1-yl]quinolin-3-yl}ethanone]	0.0027	0.29	0.19	0.18	5.1	–	–	–	–
CCN(CC)C1CCC(Nc2c(C(=O)C3CC3)cnc3ccc(-c4cc(Cl)c(O)c(OC)c4)cc23)CC1 (stereo not drawn) [Example 185(b), {6-(3-Chloro-4-hydroxy-5-methoxyphenyl)-4-[4-(diethylamino)cyclohexylamino]quinolin-3-yl}(cyclopropyl)methanone dihydrochloride]	–	–	–	–	–	1	0.49	0.18	4.7
